Where two headings read alike, the source gives them in different places.
What was measured:
[1] = system: tryptamine-induced stereotypies and hind limb paralysis; assay: Tryptamine potentiation test; type: in vivo, mice; details: for ED50: Mus musculus, po
Experimental: […] […] (60 Mg/kg of tryptamine alone causes this syndrome but it lasts for less than a minute, usually only a few seconds.) The data were analyzed quantally and ED50's calculated.

mouse brain MAO = target: T1, mouse brain MAO (Mus musculus, UniProt Q64133); assay: biochemical
T1 sequence (Q64133 1-526): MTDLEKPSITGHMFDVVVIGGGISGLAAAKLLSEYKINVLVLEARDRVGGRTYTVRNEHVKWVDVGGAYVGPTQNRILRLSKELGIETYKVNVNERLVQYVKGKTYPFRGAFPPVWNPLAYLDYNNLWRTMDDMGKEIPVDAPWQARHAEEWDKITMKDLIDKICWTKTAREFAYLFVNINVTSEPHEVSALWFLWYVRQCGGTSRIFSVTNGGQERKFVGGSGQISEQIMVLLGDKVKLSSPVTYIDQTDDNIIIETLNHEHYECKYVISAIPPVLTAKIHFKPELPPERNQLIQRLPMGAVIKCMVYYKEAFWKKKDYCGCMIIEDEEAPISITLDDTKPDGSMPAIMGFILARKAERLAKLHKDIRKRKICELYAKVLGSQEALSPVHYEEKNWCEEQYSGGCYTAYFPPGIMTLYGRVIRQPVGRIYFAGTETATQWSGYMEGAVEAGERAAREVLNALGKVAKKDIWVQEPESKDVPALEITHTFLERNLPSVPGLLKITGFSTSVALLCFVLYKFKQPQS
Experimental: For brain MAO studies, 10-20 g mice were killed, their brains were excised quickly, were dropped into ice cold 0.1 M phosphate pH 7.4 (10 ml/gram wet tissue), and were homogenized for 5 minutes with ice chilling. The homogenate was stored at ice temperature until used. 20-Ml test beakers were prepared with 1 ml homogenate and 0.5 ml test drug or water and were preincubated 10 minutes at 37° C. with shaking in air using a Dubnoff metabolic incubator. 0.5 Ml of the substrate (5-hydroxytryptamine,or 5 HT) at 2×10^-4 M was added and the samples, 3 per dose and 3 with substrate but not enzyme, were incubated for 60 minutes. […] Two grams NaCl was added and the samples were extracted with 7 ml borate-washed n-butanol and centrifuged. Three ml of each n-butanol extract plus 5 ml of HCl-washed n-heptane were back-extracted with 1.5 ml 0.1 N HCl and were centrifuged. The organic layer was aspirated off and 1 ml of each 0.1 N HCl extract was mixed with 1 ml 6 N HCl. […] Percent inhibition PI was calculated by [formula]
FI =fluorescence of test drug sample, FO =fluorescence of uninhibited sample and FS =fluorescence of the substrate-only sample.

SMILES: CCc1c(C)[nH]c2c1C(=O)C(CN1CCOCC1)CC2 (centres unmarked) [Molindone, 3-ethyl-6,7-dihydro-2-methyl-5-(morpholinomethyl)indol-4-(5H)-one]
- ED50, HIND LIMB PARALYSIS ([1]; 4 Hrs.): 8.6 mg/kg p.o.
- HEAD TWITCH (mice responding) ([1]; 5. mg/kg p.o., 4 Hrs., N=10): 0
- HIND LIMB PARALYSIS (mice responding) ([1]; 5. mg/kg p.o., 4 Hrs., N=10): 1
- ED50, HEAD TWITCH ([1]; 6 Hrs.): 15 mg/kg p.o.
- HEAD TWITCH (mice responding) ([1]; 10. mg/kg p.o., 1 Hr., N=10): 1
- HIND LIMB PARALYSIS (mice responding) ([1]; 10. mg/kg p.o., 1 Hr., N=10): 3
- HEAD TWITCH (mice responding) ([1]; 10. mg/kg p.o., 2 Hrs., N=10): 2
- HIND LIMB PARALYSIS (mice responding) ([1]; 10. mg/kg p.o., 2 Hrs., N=10): 8
- HEAD TWITCH (mice responding) ([1]; 10. mg/kg p.o., 4 Hrs., N=20): 1
- HIND LIMB PARALYSIS (mice responding) ([1]; 10. mg/kg p.o., 4 Hrs., N=20): 13
- HEAD TWITCH (mice responding) ([1]; 10. mg/kg p.o., 6 Hrs., N=10): 0
- HIND LIMB PARALYSIS (mice responding) ([1]; 10. mg/kg p.o., 6 Hrs., N=10): 7
- HEAD TWITCH (mice responding) ([1]; 10. mg/kg p.o., 24 Hrs., N=10): 0
- HIND LIMB PARALYSIS (mice responding) ([1]; 10. mg/kg p.o., 24 Hrs., N=10): 0
- HEAD TWITCH (mice responding) ([1]; 20. mg/kg p.o., 1 Hr., N=10): 3
- HIND LIMB PARALYSIS (mice responding) ([1]; 20. mg/kg p.o., 1 Hr., N=10): 9
- HEAD TWITCH (mice responding) ([1]; 20. mg/kg p.o., 2 Hrs., N=10): 3
- HIND LIMB PARALYSIS (mice responding) ([1]; 20. mg/kg p.o., 2 Hrs., N=10): 10
- HEAD TWITCH (mice responding) ([1]; 20. mg/kg p.o., 4 Hrs., N=20): 17
- HIND LIMB PARALYSIS (mice responding) ([1]; 20. mg/kg p.o., 4 Hrs., N=20): 20
- HEAD TWITCH (mice responding) ([1]; 20. mg/kg p.o., 6 Hrs., N=10): 9
- HIND LIMB PARALYSIS (mice responding) ([1]; 20. mg/kg p.o., 6 Hrs., N=10): 10
- HEAD TWITCH (mice responding) ([1]; 20. mg/kg p.o., 24 Hrs., N=10): 0
- HIND LIMB PARALYSIS (mice responding) ([1]; 20. mg/kg p.o., 24 Hrs., N=10): 0
- HEAD TWITCH (mice responding) ([1]; 40. mg/kg p.o., 1 Hr., N=10): 5
- HIND LIMB PARALYSIS (mice responding) ([1]; 40. mg/kg p.o., 1 Hr., N=10): 10
- HEAD TWITCH (mice responding) ([1]; 40. mg/kg p.o., 2 Hrs., N=10): 5
- HIND LIMB PARALYSIS (mice responding) ([1]; 40. mg/kg p.o., 2 Hrs., N=10): 10
- HEAD TWITCH (mice responding) ([1]; 40. mg/kg p.o., 4 Hrs., N=20): 19
- HIND LIMB PARALYSIS (mice responding) ([1]; 40. mg/kg p.o., 4 Hrs., N=20): 20
- HEAD TWITCH (mice responding) ([1]; 40. mg/kg p.o., 6 Hrs., N=10): 9
- HIND LIMB PARALYSIS (mice responding) ([1]; 40. mg/kg p.o., 6 Hrs., N=10): 10
- HEAD TWITCH (mice responding) ([1]; 40. mg/kg p.o., 24 Hrs., N=10): 0
- HIND LIMB PARALYSIS (mice responding) ([1]; 40. mg/kg p.o., 24 Hrs., N=10): 0
- HEAD TWITCH (mice responding) ([1]; 80. mg/kg p.o., 1 Hr., N=10): 0
- HIND LIMB PARALYSIS (mice responding) ([1]; 80. mg/kg p.o., 1 Hr., N=10): 4
- HEAD TWITCH (mice responding) ([1]; 80. mg/kg p.o., 2 Hrs., N=10): 1
- HIND LIMB PARALYSIS (mice responding) ([1]; 80. mg/kg p.o., 2 Hrs., N=10): 4
- HEAD TWITCH (mice responding) ([1]; 80. mg/kg p.o., 4 Hrs., N=10): 3
- HIND LIMB PARALYSIS (mice responding) ([1]; 80. mg/kg p.o., 4 Hrs., N=10): 6
- HEAD TWITCH (mice responding) ([1]; 80. mg/kg p.o., 6 Hrs., N=10): 6
- HIND LIMB PARALYSIS (mice responding) ([1]; 80. mg/kg p.o., 6 Hrs., N=10): 10
- HEAD TWITCH (mice responding) ([1]; 80. mg/kg p.o., 24 Hrs., N=10): 0
- HIND LIMB PARALYSIS (mice responding) ([1]; 80. mg/kg p.o., 24 Hrs., N=10): 0
- HEAD TWITCH (mice responding) ([1]; 160. mg/kg p.o., 1 Hr., N=10): 0
- HIND LIMB PARALYSIS (mice responding) ([1]; 160. mg/kg p.o., 1 Hr., N=10): 1
- HEAD TWITCH (mice responding) ([1]; 160. mg/kg p.o., 2 Hrs., N=10): 0
- HIND LIMB PARALYSIS (mice responding) ([1]; 160. mg/kg p.o., 2 Hrs., N=10): 4
- HEAD TWITCH (mice responding) ([1]; 160. mg/kg p.o., 4 Hrs., N=10): 0
- HIND LIMB PARALYSIS (mice responding) ([1]; 160. mg/kg p.o., 4 Hrs., N=10): 2
- HEAD TWITCH (mice responding) ([1]; 160. mg/kg p.o., 6 Hrs., N=10): 0
- HIND LIMB PARALYSIS (mice responding) ([1]; 160. mg/kg p.o., 6 Hrs., N=10): 4
- HEAD TWITCH (mice responding) ([1]; 160. mg/kg p.o., 24 Hrs., N=10): 2
- HIND LIMB PARALYSIS (mice responding) ([1]; 160. mg/kg p.o., 24 Hrs., N=10): 2
- ED50 ([1]; 1 Hr., read-out: ED50, HEAD TWITCH): 40 mg/kg
- ED50 ([1]; 1 Hr., read-out: ED50, HIND LIMB PARALYSIS): 13 mg/kg
- ED50 ([1]; 2 Hrs., read-out: ED50, HEAD TWITCH): 40 mg/kg
- ED50 ([1]; 2 Hrs., read-out: ED50, HIND LIMB PARALYSIS): < 10 mg/kg
- ED50 ([1]; 4 Hrs., read-out: ED50, HEAD TWITCH): 16.7 mg/kg
- ED50 ([1]; 4 Hrs., read-out: ED50, HIND LIMB PARALYSIS): 8.6 mg/kg
- ED50 ([1]; 6 Hrs., read-out: ED50, HEAD TWITCH): 15 mg/kg
- ED50 ([1]; 6 Hrs., read-out: ED50, HIND LIMB PARALYSIS): < 10 mg/kg
- ED50 ([1]; 24 Hrs., read-out: ED50, HEAD TWITCH): > 160 mg/kg
- ED50 ([1]; 24 Hrs., read-out: ED50, HIND LIMB PARALYSIS): > 160 mg/kg
- peak time, head twitch ([1]; oral, tryptamine potentiation): 6 h
- peak time, hind limb paralysis ([1]; oral, tryptamine potentiation): 4 h
- Effect on the action of tryptamine ([1]; oral, at higher doses the potentiation disappears): potentiates the action of tryptamine in a dose-related manner
- IC50 (mouse brain MAO): > 1 mM

— patent publication US4148896A, “Antidepressant combination” (E. I. Du Pont de Nemours and Company, priority 1978, dated 1979)
